Measurements: ChEMBL document CHEMBL1136509, “Structure-activity relationships of novel anti-malarial agents: part 5. N-(4-acylamino-3-benzoylphenyl)-[5-(4-nitrophenyl)-2-furyl]acrylic acid amides” (Bioorg Med Chem Lett, 2003)

System: Plasmodium falciparum
Experiment: Inhibitory activity against Plasmodium falciparum Dd2 in erythrocytes by semiautomated micro dilution
Type: functional, organism-based

IC50 | Structure (SMILES)
1000 nM | O=C(/C=C/c1ccc(-c2ccc([N+](=O)[O-])cc2)o1)Nc1ccc(NC(=O)Cc2ccccc2C(F)(F)F)c(C(=O)c2ccccc2)c1
1000 nM | O=C(/C=C/c1ccc(-c2ccc([N+](=O)[O-])cc2)o1)Nc1ccc(NC(=O)Cc2ccccc2Br)c(C(=O)c2ccccc2)c1
2500 nM | O=C(/C=C/c1ccc(-c2ccc([N+](=O)[O-])cc2)o1)Nc1ccc(NC(=O)c2ccc(Cl)cc2)c(C(=O)c2ccccc2)c1
210 nM | O=C(/C=C/c1ccc(-c2ccc([N+](=O)[O-])cc2)o1)Nc1ccc(NC(=O)Cc2ccc3ccccc3c2)c(C(=O)c2ccccc2)c1
150 nM | Cc1cccc(CC(=O)Nc2ccc(NC(=O)/C=C/c3ccc(-c4ccc([N+](=O)[O-])cc4)o3)cc2C(=O)c2ccccc2)c1
650 nM | Cc1ccccc1CC(=O)Nc1ccc(NC(=O)/C=C/c2ccc(-c3ccc([N+](=O)[O-])cc3)o2)cc1C(=O)c1ccccc1
770 nM | O=C(/C=C/c1ccc(-c2ccc([N+](=O)[O-])cc2)o1)Nc1ccc(NC(=O)c2cccc3ccccc23)c(C(=O)c2ccccc2)c1
1000 nM | O=C(/C=C/c1ccc(-c2ccc([N+](=O)[O-])cc2)o1)Nc1ccc(NC(=O)Cc2ccc(-c3ccccc3)cc2)c(C(=O)c2ccccc2)c1
270 nM | O=C(/C=C/c1ccc(-c2ccc([N+](=O)[O-])cc2)o1)Nc1ccc(NC(=O)Cc2ccccc2)c(C(=O)c2ccccc2)c1
320 nM | COc1ccc(CC(=O)Nc2ccc(NC(=O)/C=C/c3ccc(-c4ccc([N+](=O)[O-])cc4)o3)cc2C(=O)c2ccccc2)cc1
47 nM | O=C(/C=C/c1ccc(-c2ccc([N+](=O)[O-])cc2)o1)Nc1ccc(NC(=O)Cc2ccc(C(F)(F)F)cc2)c(C(=O)c2ccccc2)c1
5500 nM | O=C(/C=C/c1ccc(-c2ccc([N+](=O)[O-])cc2)o1)Nc1ccc(NC(=O)C(c2ccccc2)c2ccccc2)c(C(=O)c2ccccc2)c1
250 nM | O=C(/C=C/c1ccc(-c2ccc([N+](=O)[O-])cc2)o1)Nc1ccc(NC(=O)Cc2cccc3ccccc23)c(C(=O)c2ccccc2)c1
70 nM | O=C(/C=C/c1ccc(-c2ccc([N+](=O)[O-])cc2)o1)Nc1ccc(NC(=O)Cc2ccc(Br)cc2)c(C(=O)c2ccccc2)c1
1400 nM | O=C(/C=C/c1ccc(-c2ccc([N+](=O)[O-])cc2)o1)Nc1ccc(NC(=O)Cc2ccc([N+](=O)[O-])cc2)c(C(=O)c2ccccc2)c1
3000 nM | O=C(/C=C/c1ccc(-c2ccc([N+](=O)[O-])cc2)o1)Nc1ccc(NC(=O)c2ccccc2)c(C(=O)c2ccccc2)c1
500 nM | CC(C(=O)Nc1ccc(NC(=O)/C=C/c2ccc(-c3ccc([N+](=O)[O-])cc3)o2)cc1C(=O)c1ccccc1)c1ccccc1 (stereo not given)
2500 nM | O=C(/C=C/c1ccc(-c2ccc([N+](=O)[O-])cc2)o1)Nc1ccc(NC(=O)c2ccc3ccccc3c2)c(C(=O)c2ccccc2)c1
230 nM | O=C(/C=C/c1ccc(-c2ccc([N+](=O)[O-])cc2)o1)Nc1ccc(NC(=O)Cc2ccc(F)cc2)c(C(=O)c2ccccc2)c1

Structure (SMILES) | IC50
O=C(/C=C/c1ccc(-c2ccc([N+](=O)[O-])cc2)o1)Nc1ccc(NC(=O)Cc2ccc(Cl)cc2)c(C(=O)c2ccccc2)c1 | 64 nM
